{"source": "patent US20100004248A1", "about": "“Use of a Nitric Oxide Synthase Modulator for the Treatment of Cardiac Indications” (priority 2005, published 2010)", "key": {"[1]": {"system": "intact heart, beta-adrenergic stimulation by ISO", "assay": "Contractility response of intact heart to isoproterenol (ISO)", "format": "in vivo, mouse", "text": "Regulation of acute beta-adrenergic stress by PDE5a inhibition (resulting in a rise in cGMP and activation of protein kinase G) requires the activity of nitric oxide synthase (NOS). […] This can be offset by chronic distal activation of the NO target protein soluble guanylate cyclase 9sGC). At the left are bars depicting the contractility response of an intact heart to ISO before and after co-administration of SIL. The ISO response is normally blunted by nearly 80%. The middle bars show data from mice with NOS inhibited by L-NAME (1 mg/L in drinking water). […] However, if one continues to treat hearts with the soluble guanylate cyclase activator (BAY 41-8543) for a week-all the while continuing NOS inhibition with L-NAME, the ability of SIL to suppress adrenergic stimulation is restored."}, "[2]": {"system": "C57/BL6 WT mice subjected to TAC pressure overload", "assay": "Transthoracic echocardiography in conscious TAC mice", "format": "in vivo, mouse", "text": "(§1) Male NOS3 null mice (NOS3^−/−) and C57/BL6 WT controls (8-11 weeks, Jackson Labs, Bar Harbor, Me., USA) were used. Pressure overload was produced by transverse aorta constriction (TAC). Briefly, The aortic arch was isolated by entering the extrapleural space between the second and third rib, and afterwards the transverse aorta was isolated between the right and left carotid arteries. A 7-0 prolene suture ligature was tied around the transverse aorta against a 27-gauge needle to produce a 65-70% constriction after the removal of the needle. After closing the chest, animals were extubated, and a subcutaneous injection of morphine sulphate 0.2 mg, was administered before they returned to their cages. Animal's ventilatory and circulatory status was checked every 30 minutes during the first 2 hours. Sham-operated mice underwent the same operation except for aortic constriction. […] Animals were randomized to receive placebo or BH4 (120 mg/kg/d) for the next 5 weeks. At the end of the study, i.e. at 9 weeks, animal were sacrificed to receive tissue or underwent in vivo PV-loop analysis. […] Control mice were subject to sham operations, and animals were studied 3-9 weeks following surgery. An additional group of wild-type animals were subjected to TAC for 3 weeks while co-treated with oral tetrahydrobiopterin (BH4) (Sigma-Aldrich) (1 mg/g food) mixed in their rodent chow, providing 5 mg/day based on 4-6 g daily diet^8.\n(§2) Two different BH4 treatment protocols are used. For experiments related to FIGS. 1-7, where prevention of cardiac indications is described BH4 is provided orally as a treatment starting 2 days after TAC surgery (once mice are again eating oral diet). For those figures related to treatment of established cardiac indications, FIGS. 8-23, BH4 is provided orally but this is delayed for 4 weeks to establish substantial cardiac hypertrophy, remodeling, and NOS-uncoupling. Then the treatment is provided for the remaining 5 week period.\nFor folate studies, C57/BL6 WT were treated with folate (10 mg/kg/day) or with placebo for a 9 week period during which time the hearts were exposed to TAC.\nIn vivo cardiac morphology was assessed by transthoracic echocardiography (Acuson Sequoia C256, 13 MHz transducer, Siemens) in conscious mice. M-mode left ventricular (LV) end-systolic and end-diastolic dimensions were averaged from 3-5 beats. Left ventricular ejection fraction (LVEF) and percent fractional shortening (% FS) were calculated as: LVEF=[(LVEDD)^3-(LVESD)^3]/(LVEDD)^3×100; % FS=(LVEDD−LVESD)/LVEDD×100. Wall thickness of lateral freewall and intraventricular septum were averaged. Studies and analysis were performed blinded to heart condition."}, "[3]": {"system": "C57/BL6 WT mice subjected to TAC pressure overload", "assay": "In vivo hemodynamics, PV loop analysis, in TAC mice", "design": "species or system mouse", "details": "TAC 3 weeks, oral co-treatment 1 mg/g food, mean ± sem", "text": "as §1, §2\nIn vivo left ventricular (LV) function was assessed by pressure-volume catheter^12,13. Mice were anesthetized with 1-2% isoflurane, urethane ([…], i.p.), etomidate (5-10 mg/kg, i.p.), and morphine (1-2 mg/kg, i.p.), underwent tracheostomy, and were ventilated with 6-7 μL/g tidal volume and 130 breaths/min. Volume expansion (12.5% human albumin, 50-100 μL over 5 min) was provided through a 30 G cannula via the right external jugular vein. The left ventricular apex was exposed through an incision between the 7-8th rib, and a catheter, specifically a 1.4 Fr PV catheter (SPR 839, Millar Instruments, Inc.), was advanced through the apex to lie along the longitudinal axis. Absolute volume was calibrated, and pressure-volume data was measured at steady state and during transient reduction of venous return as reported^13"}, "[4]": {"system": "C57/BL6 WT mice subjected to TAC pressure overload", "assay": "Body weight and heart weight in mice subjected to transverse aortic constriction (TAC)", "format": "in vivo, mouse", "details": "TAC 3 weeks, oral co-treatment 1 mg/g food, mean ± sem", "text": "as §1, with “An additional group of wild-type animals were subjected to TAC for 3 weeks while co-treated with oral tetrahydrobiopterin (BH4) (Sigma-Aldrich) (1 mg/g food) mixed in their rodent chow, providing 5 mg/day based on 4-6 g daily diet^8.” left out"}, "[5]": {"target": "T1, NOS (Mus musculus, UniProt P70313)", "T1 construct": "from tissue; host or cells: mouse left ventricular tissue homogenate", "T1 sequence (P70313 2-1202)": "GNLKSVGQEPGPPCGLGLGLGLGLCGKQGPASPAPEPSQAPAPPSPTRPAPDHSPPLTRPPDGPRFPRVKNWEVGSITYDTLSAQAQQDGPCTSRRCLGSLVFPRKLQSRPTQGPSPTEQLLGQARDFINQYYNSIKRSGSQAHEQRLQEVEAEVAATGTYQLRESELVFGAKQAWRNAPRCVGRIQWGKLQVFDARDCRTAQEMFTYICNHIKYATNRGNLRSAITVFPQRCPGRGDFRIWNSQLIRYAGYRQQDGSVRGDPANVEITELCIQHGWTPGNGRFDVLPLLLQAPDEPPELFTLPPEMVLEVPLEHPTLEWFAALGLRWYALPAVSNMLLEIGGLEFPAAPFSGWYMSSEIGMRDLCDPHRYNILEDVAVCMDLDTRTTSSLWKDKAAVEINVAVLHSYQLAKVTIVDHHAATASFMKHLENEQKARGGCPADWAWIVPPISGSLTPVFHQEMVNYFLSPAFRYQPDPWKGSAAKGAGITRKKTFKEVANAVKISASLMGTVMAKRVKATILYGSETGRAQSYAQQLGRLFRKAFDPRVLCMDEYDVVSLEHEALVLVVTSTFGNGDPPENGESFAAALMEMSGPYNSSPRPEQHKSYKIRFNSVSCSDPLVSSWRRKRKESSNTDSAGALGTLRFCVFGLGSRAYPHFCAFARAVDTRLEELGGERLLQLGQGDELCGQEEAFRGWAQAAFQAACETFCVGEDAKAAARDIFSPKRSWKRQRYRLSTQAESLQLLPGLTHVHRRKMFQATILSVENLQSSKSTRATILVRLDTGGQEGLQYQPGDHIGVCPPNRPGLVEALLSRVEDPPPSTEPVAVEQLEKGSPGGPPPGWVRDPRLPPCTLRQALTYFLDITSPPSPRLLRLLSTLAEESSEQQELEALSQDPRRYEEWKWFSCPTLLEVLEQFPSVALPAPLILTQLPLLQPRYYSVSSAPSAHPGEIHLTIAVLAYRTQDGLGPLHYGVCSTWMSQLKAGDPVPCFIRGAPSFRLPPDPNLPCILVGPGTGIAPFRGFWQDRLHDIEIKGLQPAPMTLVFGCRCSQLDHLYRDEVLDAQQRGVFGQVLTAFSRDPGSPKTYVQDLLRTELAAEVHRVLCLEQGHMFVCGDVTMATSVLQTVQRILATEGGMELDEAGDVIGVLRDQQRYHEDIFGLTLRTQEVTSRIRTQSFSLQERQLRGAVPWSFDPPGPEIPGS", "assay": "Luminol chemiluminescence of heart tissue extracts with or without co-incubation with L-NAME (NOS-derived O2−)", "format": "biochemical", "details": "1 mM co-incubation", "experimental": "Given the decline in NO-synthetic activity, it was next tested whether NOS-derived O2^− increased with TAC. Tissue extracts were subjected to luminol chemiluminescence assay with or without co-incubation with the NOS inhibitor L-NAME (1 mM). The relative contribution of NOS was minimal under basal conditions, but rose markedly (˜50%) after 3- and 9-weeks TAC (FIG. 6D). Control data in NOS3^−/− hearts confirmed this to be from NOS3 and not the other NOS isoforms.\nReactive oxygen species generation was examined by several independent methods. Superoxide production in left ventricular tissue homogenates was determined by luminol-enhanced chemiluminescence (EMD Biosciences). Flash frozen myocardium was homogenized in iced PBS buffer, centrifuged, and the precipitate re-suspended in assay buffer to a final concentration of 100 μM luminol following manufacturer's instructions. Phorbol-12-myristate-13-acetate or other oxidase stimulators were not used in the assay. Data were normalized by sample weight. […] Nitrotyrosine was also quantitatively assessed by ELISA assay (Oxis International)."}, "[6]": {"details": "healthy subjects, cited from earlier work"}, "[7]": {"system": "Adult myocytes isolated from wild-type C57/B16 mouse hearts", "assay": "Sarcomere shortening of isolated adult myocytes exposed to isoproterenol", "format": "cell-based", "details": "myocytes from 3-4 weeks TAC hearts first treated with the anti-oxidant"}, "[8]": {"details": "WT mice, TAC 3 weeks, oral co-treatment 1 mg/g food, mean ± sem"}, "[9]": {"details": "TAC up to 9 weeks, folate 10 mg/kg/day vs placebo, p<0.05"}}, "data": [{"smiles": "Nc1nc(-c2nn(Cc3ccccc3F)c3ncccc23)nc(N)c1N1CCOCC1", "note": "[BAY 41-8543]", "values": [{"measurement": "restoration of the ability of SIL to suppress ISO stimulated contractility", "setting": "[1]; acute administration of sGC activator, L-NAME for 1 week", "result": "does not reverse this"}, {"measurement": "restoration of the ability of SIL to suppress adrenergic stimulation", "setting": "[1]; sGC activator for a week while continuing L-NAME", "result": "restored"}]}, {"smiles": "C[C@H](O)[C@H](O)[C@H]1CNc2nc(N)[nH]c(=O)c2N1", "note": "[BH4, (6R)-5,6,7,8-tetrahydrobiopterin]", "values": [{"measurement": "Fractional Shortening", "setting": "[2]; [8]", "result": "61.7 ± 1.7", "unit": "%"}, {"measurement": "LV diameter Diastole", "setting": "[2]; [8]", "result": "2.87 ± 0.06", "unit": "mm"}, {"measurement": "LV diameter Systole", "setting": "[2]; [8]", "result": "1.12 ± 0.06", "unit": "mm"}, {"measurement": "Wall thickness", "setting": "[2]; [8]", "result": "1.09 ± 0.03", "unit": "mm"}, {"measurement": "Arterial Elastance", "setting": "[3]", "result": "10.6 ± 0.7", "unit": "mmHg/μL"}, {"measurement": "Ejection Fraction", "setting": "[3]", "result": "78.4 ± 5.8", "unit": "%"}, {"measurement": "End-diastolic Volume", "setting": "[3]", "result": "20.5 ± 1.9", "unit": "µL"}, {"measurement": "End-systolic Elastance", "setting": "[3]", "result": "115.1 ± 9.6", "unit": "mmHg/μL · g"}, {"measurement": "End-systolic Volume", "setting": "[3]", "result": "4.8 ± 1.7", "unit": "µL"}, {"measurement": "Heart RateR", "setting": "[3]", "result": "603.3 ± 22.9", "unit": "min⁻¹"}, {"measurement": "LV Systolic Pressure", "setting": "[3]", "result": "193.0 ± 1.7", "unit": "mmHg"}, {"measurement": "Peak Power Index", "setting": "[3]", "result": "75.5 ± 10.5", "unit": "mmHg/s"}, {"measurement": "Tau", "setting": "[3]", "result": "3.5 ± 0.2", "unit": "ms"}, {"measurement": "dPdtmn", "setting": "[3]", "result": "−15743 ± 1325", "unit": "mmHg/s"}, {"measurement": "dPdtmx", "setting": "[3]", "result": "17003 ± 1125", "unit": "mmHg/s"}, {"measurement": "Heart Weight (HW)", "setting": "[4]", "result": "170.3 ± 3.9", "unit": "mg"}]}, {"smiles": "COC(=O)[C@@H](N)CCCNC(=N)N[N+](=O)[O-]", "note": "[L-NAME]", "values": [{"measurement": "inhibition of luminol chemiluminescence", "setting": "[5]; 3 weeks and 9 weeks WT-TAC heart lysates", "result": "~50", "unit": "%"}, {"measurement": "inhibition of luminol chemiluminescence", "setting": "[5]; baseline (sham) heart lysates", "result": "< 15", "unit": "%"}]}, {"smiles": "CN1CC(=O)N2[C@H](c3ccc4c(c3)OCO4)c3[nH]c4ccccc4c3C[C@@H]2C1=O", "note": "[Tadalafil, tadalafil]", "values": [{"measurement": "time of peak plasma concentration post-dose", "setting": "[6]; oral 20 mg dose", "result": "two"}, {"measurement": "apparent oral clearance (CL/F)", "setting": "[6]; oral", "result": 2.48, "unit": "L/h"}, {"measurement": "mean elimination half-life", "setting": "[6]; oral", "result": "about 17.5 h"}]}, {"smiles": "Nc1nc2ncc(CNc3ccc(C(=O)N[C@@H](CCC(=O)O)C(=O)O)cc3)nc2c(=O)[nH]1", "note": "[folate, folic acid]", "values": [{"measurement": "LV mass", "setting": "[2]; [9]", "result": "reduced"}, {"measurement": "cardiac dilation", "setting": "[2]; [9]", "result": "diminished"}, {"measurement": "Ejection Fraction", "setting": "[2]; TAC up to 9 weeks, folate 10 mg/kg/day vs placebo, p=0.05", "result": "significantly improved"}]}, {"smiles": "N[C@@H](CCC(=O)N[C@@H](CS)C(=O)NCC(=O)O)C(=O)O", "note": "[reduced glutathione]", "values": [{"measurement": "capacity of PDE5a inhibition to blunt the beta-adrenergic response after anti-oxidant pre-treatment", "setting": "[7]", "result": "recovered"}]}]}
